Patent US7731856B2, “Method and system for treating waste matter from animals, urea-rich and urea-lean waste-matter products, and uses thereof” (Waste 2 Green, LLC, priority 2003, dated 2010)
Like-named read-outs stand apart in the source and are kept apart here.

Experiments:
[1] = biological target: urease (Canavalia ensiformis, UniProt P07374)
Protocol: This can simply be studied by addition of 30 ml of methanal to the urease-contaminated and Cu^2+-contaminated reference system.
This is simple studied by addition of 30 ml methanal to the reference system contaminated with urease, Ag^+- or Pb^2+-ions.

[2] = test system: urease activity from natural animal faeces; experiment: stable experiment: collected liquid manure and faeces with inhibitor, hyperfiltration, polymerisation with methanal; set-up: species or system pigs; conditions: for polymerisation of concentrated livestock-produced urea with methanal: 50 ml of hyperfiltration concentrate plus 30 ml methanal
Protocol: Below a stable floor supporting 20 pigs to be slaughtered a large plastic foil covering the underlying floor having the shape of an inverted pyramid was placed. […] The liquid manure and faeces of the animals were collected on this foil for the next 24 hours. From this foil 20 l sample was collected (and separated) and treated in a hyperfiltration system of the type ROMEDI-250 supplied by UNION-filtration a/s, Nakskov, Denmark. The separation process was continued until a total of 15 l permeate liquid—water was withdrawn. The urea-lean fraction was disposed.

[3] = biological target: urease EC 3.5.1.5 (Canavalia ensiformis, UniProt P07374)
Protocol: For this example, a colourless urea reference system is defined by the following mixture: in a conical flask 10 g of synthetic urea is diluted with water to 50 ml, three drops of the acid-base indicator phenolphthalein is added.

[4] = test system: urease
[5] = 30 ml methanal (24% by weight) added to urease-contaminated urea system containing the inhibitor

Chain of urease (Canavalia ensiformis, UniProt P07374) (P07374 whole entry, looked up): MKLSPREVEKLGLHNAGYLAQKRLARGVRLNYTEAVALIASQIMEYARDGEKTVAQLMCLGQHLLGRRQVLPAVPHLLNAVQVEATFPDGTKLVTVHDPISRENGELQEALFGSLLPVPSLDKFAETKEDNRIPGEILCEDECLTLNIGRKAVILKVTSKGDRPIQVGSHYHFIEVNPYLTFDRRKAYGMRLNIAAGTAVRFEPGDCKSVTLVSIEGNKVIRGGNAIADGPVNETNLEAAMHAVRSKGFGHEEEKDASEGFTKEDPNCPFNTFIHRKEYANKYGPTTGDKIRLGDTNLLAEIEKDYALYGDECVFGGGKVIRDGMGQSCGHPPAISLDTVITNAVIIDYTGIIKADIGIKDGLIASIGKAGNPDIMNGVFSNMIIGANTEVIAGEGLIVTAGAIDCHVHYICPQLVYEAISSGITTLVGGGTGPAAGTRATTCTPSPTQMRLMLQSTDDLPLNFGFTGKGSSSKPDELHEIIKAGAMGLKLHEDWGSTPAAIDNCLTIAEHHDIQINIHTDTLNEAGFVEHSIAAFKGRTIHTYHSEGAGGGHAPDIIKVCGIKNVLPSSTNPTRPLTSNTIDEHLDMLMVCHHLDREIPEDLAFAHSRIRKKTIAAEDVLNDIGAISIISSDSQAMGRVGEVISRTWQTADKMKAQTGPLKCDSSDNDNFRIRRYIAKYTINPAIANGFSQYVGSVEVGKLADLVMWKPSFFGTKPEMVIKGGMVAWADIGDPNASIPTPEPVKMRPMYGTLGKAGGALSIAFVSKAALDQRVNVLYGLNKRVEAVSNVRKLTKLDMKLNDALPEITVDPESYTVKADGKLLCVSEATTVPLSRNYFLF
Chain of urease EC 3.5.1.5 (P07374 whole entry, looked up): as above

## CC(=NO)C(C)=NO [dimethylglyoxime]
[1]; [5]
  formation of urea formaldehyde plastic in spite of urease contamination: it is possible to form the urea formaldehyde plastic
[2]
  polymerisation of concentrated livestock-produced urea with methanal: can be reproduced

## NCCN [ethylenediamine]
[1]
  formation of urea formaldehyde plastic in spite of urease contamination: it is possible to form the urea formaldehyde plastic
[2]
  polymerisation of concentrated livestock-produced urea with methanal: can be reproduced

## CC(=O)[O-].CC(=O)[O-].[Pb+2] [lead acetate]
[2]
  polymerisation of concentrated livestock-produced urea with methanal: can be reproduced

## O=[N+]([O-])[O-].[Ag+] [silver nitrate]
[3]; 1 g inhibitor added to 10 g urea in 50 ml water, then 1 ml urease (540 units per ml), system also does not begin to smell of ammonia
  colour shift of phenolphthalein into red (ammonia formation by urea hydrolysis): the colour shift of phenolphthalein does not occur
[3]; ions present in the urinal system
  catalytic effect of the urease enzyme on the hydrolysis of urea: completely lost
[1]; [5]
  formation of urea formaldehyde plastic in spite of urease contamination: it is possible to form the urea formaldehyde plastic
[2]
  polymerisation of concentrated livestock-produced urea with methanal: can be reproduced

## NC(N)=O [urea]
[4]; pH 5.5, pig manure system
  Km: ~1000 µM
  νm: approximately 2×10^−3 mol/dm^3/min
[4]; pH 7, similar manure system
  Km: ~4000 µM
  νm: approximately 11×10^−3 mol/dm^3/min

## copper sulphate, pentahydrate
[2]; 5 l water and 10 g copper sulphate, pentahydrate below stable floor, 20 pigs, 24 hours collection
  urease activity in manure system: remove the urease activity
[2]
  polymerisation of concentrated livestock-produced urea with methanal: the polymerisation proceeded
